Data: patent publication US20220054610A1, “SLOW-CYCLING CELL-RNA BASED NANOPARTICLE VACCINE TO TREAT CANCER” (University of Florida Research Foundation, Inc., priority 2018, published 2022)

Experiments:
FABP3 = molecular target: T1, FABP3 (Homo sapiens, UniProt P05413); experiment: C16-BODIPY fatty acid uptake by flow cytometry, FABP3 inhibition; type: cell-based; conditions: SCCs; 250 nM FABP3 inhibitor
T1 construct: endogenous in cells; host or cells: patient-derived GBM cells (SCCs and FCCs)
T1 sequence (P05413 whole entry): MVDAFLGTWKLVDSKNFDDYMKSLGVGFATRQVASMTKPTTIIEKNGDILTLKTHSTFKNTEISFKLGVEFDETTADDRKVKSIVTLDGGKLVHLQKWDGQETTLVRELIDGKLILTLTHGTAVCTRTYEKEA
Experimental: (§1) Each cell line was labeled with CellTrace dye and grown for 5-7 days. Cells were then dissociated and treated with different BODIPY® FLC16 (Molecular probes) concentrations and incubation times described below. Fatty acids conjugated to C16-BODIPY fluorophore undergo native-like metabolism and transport. Dose response was performed with 0, 0.5, 2.5, 5, 10, 25, and 50 nM BODIPY, and the time course was done at a concentration of 5 nM for 1, 4, 5, 10, and 15 min. The cells were then washed and fixed with 4% paraformaldehyde. To determine the amount of fatty acid uptake, cells were analyzed by flow cytometry on a BD LSRII Flow Cytometer. Fatty acid transporter inhibitors SB-FI-26 (Cayman Chemicals, #14191) and BMS309403 (Millipore, #34310) were used to inhibit FABP7 (Kaczocha et al., 2014) and FABP3 (Furuhashi et al., 2007), respectively.

hGBM SCCs and FCCs = experiment: Cell death by flow cytometry (propidium iodide incorporation, cleaved caspase 3); type: cell-based, human; conditions: for apoptotic cell death (cleaved caspase 3) in SCCs: unlike FCCs, 24 hours of treatment
Experimental: Propidium iodide incorporation and expression of cleaved caspase 3 were used to compare the effects of glucose restriction and/or mitochondrial function inhibition (by rotenone or metformin treatment). Briefly, cells were labeled with CellTrace dye and grown in complete medium for 5-7 days before being placed in high glucose (HG; >500 mg/dL) or physiological glucose conditions (PG; 90-110 mg/dL) and/or treated with rotenone (0.5-1 μM) or metformin (10-20 mM) for 24 hours. Media glucose concentrations were monitored daily and maintained constant throughout the experiments by adding glucose to the cell cultures as needed, which prevented the glucose supply exhaustion that might have occurred due to FCCs' higher division rate.
(§2) Propidium iodide and cleaved caspase 3 staining were quantified using flow cytometry. The effects of restricting glucose along with mitochondrial targeting using rotenone or metformin were investigated using the CyQUANT™ assay. Cells were plated at 60,000 cells per well in 96-well plates and exposed to the treatments alone or in combination (physiological glucose, 0.5 μM rotenone, and 10 mM metformin). CyQUANT™ binding dye was added to each well and incubated for 30 min at 37° C. before being quantified using Biotek™ Cytation™ 3 Cell Imaging Multi-Mode Reader.

[1] = system: L0, L1, L2 GBM patient-derived cell line xenografts; experiment: In vivo survival with FABP7 inhibitor and/or 2-DG, Kaplan-Meier and Cox frailty model; design: species or system NOD-SCID mice; conditions: Cox frailty model, all three GBM cell lines grouped
[2] = system: L1 SCC, FCC or total unsorted intracranial xenografts; experiment: In vivo rotenone treatment of intracranially implanted animals, survival; design: species or system NOD-SCID mice
Excerpt: Adult male NOD-SCID mice (7-15 weeks old) were used for in vivo tumor implants following NIH and institutional (IACUC) guidelines and regulations for animal care and handling. The mice colonies were maintained at the University of Florida's animal facility. Animals were randomized to cages following implantation. For in vivo tumor invasion assay, FACS cells were intracranially implanted as previously described (Deleyrolle L P, et al. (2011) Brain 134:1331-43; Siebzehnrubl F A, et al. (2013) Hoang-Minh et al., EMBO Mol Med: 1196-1212) and invasion assay was performed 10 weeks post implant. For in vivo TMZ treatment, animals were implanted with 100,000 cells immediately after cell sorting. Tumor-bearing animals were intraperitoneally treated with 5 injections of 20 mg/kg TMZ over 5 days at 3 (hGBM L0) or 4 (hGBM L2) weeks post implantation. For in vivo restricted glucose and mitochondria targeting experiments, animals were xenografted with SCCs or FCCs and subjected to either a high carbohydrate control diet or a custom supplemented high fat/low carbohydrate dietary regimen (sHFLC) (Martuscello R T, et al. (2016) Clin Cancer Res. 22:2482-95). Each group received vehicle or rotenone treatment (0.5 mg/kg i.p, once a week for 6 weeks).

hGBM cells = experiment: CyQUANT assay, glucose restriction combined with mitochondrial targeting; type: cell-based, human; conditions: physiological glucose plus 0.5 μM rotenone or 10 mM metformin, 24 hours
Experimental: as §2

FABP7 = molecular target: T2, FABP7 (Homo sapiens, UniProt O15540); experiment: C16-BODIPY fatty acid uptake by flow cytometry, FABP7 inhibition; type: cell-based; conditions: SCCs; 200 nM FABP7 inhibitor, L1
T2 construct: endogenous in cells; host or cells: L1 patient-derived GBM cell line, slow-cycling (SCC) and fast-cycling (FCC) cells
T2 sequence (O15540 whole entry): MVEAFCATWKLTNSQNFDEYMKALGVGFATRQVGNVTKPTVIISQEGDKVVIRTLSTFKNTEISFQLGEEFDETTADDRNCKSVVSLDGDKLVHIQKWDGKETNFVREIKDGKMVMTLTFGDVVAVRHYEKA
Experimental: as §1

L1 SCCs and FCCs = experiment: CyQUANT proliferation assay, FABP7 inhibitor with high or physiological glucose; type: cell-based, human; conditions: 5 days
Excerpt: (FIG. 7A) GSEA comparing RNA sequencing results between SCCs and FCCs (n=3 biological replicates, L0-1-2) for the fatty acid metabolism gene signature. FDR, false discovery rate; NES, normalized enrichment score; Nom., nominal. (FIG. 7B) Results for qRT-PCR of genes differentially expressed between SCCs and FCCs using the RT2 Profiler PCR Array for Human Fatty Acid Metabolism. Changes in transcript levels are given as percent change relative to FCCs (n=3-8, p<0.05, one sample t-test). (FIG. 7C) FABP7 expression in brain (n=4), breast (n=336), colorectal (n=374), lung (n=117), ovarian (n=242), and pancreatic (n=20) cancer cell lines (**, p<0.005, ****, p<0.0001, one-way ANOVA). (FIG. 7D) Evaluation of the Bredel dataset indicated higher expression of FABP7 in glioblastoma (n=27) compared to non-malignant (n=4) brain tissue (**, p<0.005, t-test). […] (FIG. 7J) C16-BODIPY uptake was measured in L1 GBM line SCCs or FCCs cultured with or without 200 nM FABP7 inhibitor (FABP7i, each condition, n=3, *** p<0.0001, linear regression). […] Cell proliferation was assessed using CyQUANT assays 5 days after treatment (n=2-3, * p<0.05, one-way ANOVA with Tukey post-test). (FIG. 7L) C16-BODIPY uptake was measured in the L1 wild-type (WT) and CRISPR-FABP7 (crFABP7) cell line (each condition, n=3, * p<0.05, linear regression). […]

[3] = system: GBM unsorted and SCC populations; experiment: Tumor sphere migration assay; type: cell-based, human
Experimental: For quantification of cell migration, tumor spheres were plated onto a laminin/poly-D-lysine coated surface at low density and in the presence of growth factors, FABP7 inhibitor (SB-FI-26), or DMSO as a solvent control. Images were taken from the same spheres 2 hours and 24 hours after plating with a Leica DM IL microscope equipped with a DFC3000G camera and Leica application suite X software. The greatest distance of outgrowing cells was measured using ImageJ, and migration distance was calculated as the difference between the two time points. Only spheres with a diameter greater than 50 μm, 2 hours after plating, were used to measure migration distance.

[4] = system: GBM xenograft tumor cell invasion; experiment: In vivo tumor cell invasion after FABP7 inhibition; design: species or system NOD-SCID mice; conditions: in vivo inhibition of FABP7
Experimental: Tumor invasion was measured using human-specific nestin labeling (Millipore, MAB5326). Full images of brain sections were obtained by multiple gray scale imaging acquired using Spot Advanced software (Spot Imaging Solutions), merged into full images, and inverted into black-and-white images using Photoshop CS6 (Adobe Systems). Staining threshold levels were adjusted in Image J software to distinguish tumor from background, as previously described (Siebzehnrubl F A, et al. (2013) EMBO Mol Med: 1196-1212). Invasion index was obtained by calculating the ratio of the squared-perimeter distance over the area (P2/A). Dissociated tumors are associated with higher invasion indices compared to more spherical tumors characterized by lower invasion indices. High-power images of stained tissues were taken using an IX81-DSU spinning disk confocal microscope (Olympus) fitted with a 60x water immersion objective, and all images were captured as z-stacks (0.5 μm steps). For 3D imaging, pictures were acquired using a UPLSAPO 60x water objective and Hamamatsu ORCA-AG Camera. Images were captured as z-stacks (0.5 μm steps). All image analyses and 3D surface reconstructions utilized the 3i SlideBook v4.2 Software (with Deconvolution Module). Image capture settings were standardized across samples. 3D surface reconstruction rendering cut-off values were also standardized in the 3i SlideBook software.

## CCc1c(-c2ccccc2)c(-c2ccccc2)nn1-c1ccccc1-c1cccc(OCC(=O)O)c1 [FABP3 inhibitor]
FABP3
  uptake of fluorescently labeled fatty acid C16-BODIPY: significantly decreased

## O=CC[C@@H](O)[C@H](O)[C@H](O)CO [2-DG, 2-deoxyglucose]
hGBM SCCs and FCCs; 0, 5 or 20 mM for 24 hours
  cell death, sensitivity of SCCs versus FCCs to glycolysis inhibition: SCCs are less sensitive to this pharmacological inhibition than FCCs
[1]
  average (main) effect HR: 0.74
  mortality hazard ratio (HR) versus control group: 0.84

## C=C(C)[C@H]1Cc2c(ccc3c2O[C@@H]2COc4cc(OC)c(OC)cc4[C@@H]2C3=O)O1 [rotenone]
hGBM SCCs and FCCs
  apoptotic cell death (cleaved caspase 3) in SCCs: significant increase in apoptotic cell death
[2]; FCC-implanted animals, 0.5 mg/kg i.p. once a week
  survival: did not gain any survival benefit
[2]; SCC-implanted animals, 0.5 mg/kg i.p. once a week, versus vehicle
  survival: significant increase in survival
[2]; animals implanted with total unsorted population
  survival: improved survival
hGBM cells
  GBM cell survival, combination with glucose deprivation: greatest inhibitory effect on GBM cell survival

## O=C(O)C1[C@H](c2ccccc2)C(C(=O)Oc2cccc3ccccc23)[C@H]1c1ccccc1 (stereo partly shown) [SB-FI-26]
FABP7
  uptake of fluorescently labeled fatty acid C16-BODIPY: significantly decreased
L1 SCCs and FCCs; L1 FCCs, decreased glucose plus 200 nM FABP7 inhibitor
  FCC growth: did not result in any additional growth inhibitory effect on FCCs
L1 SCCs and FCCs; L1 SCCs, lower glucose plus 200 nM FABP7 inhibitor
  SCC survival/proliferation: significantly inhibited
[3]; FACS-sorted SCCs, all cell lines tested
  cell migration: significant decrease of cell migration
[3]; unsorted total GBM populations, all three lines, 1 and 10 μM
  cell migration: significantly reduced overall cell migration
[4]
  tumor cell invasion in vivo: decreased of cell invasion
[1]
  average (main) effect HR: 0.38
  mortality hazard ratio (HR) versus control group: 0.43

## CN(C)C(=N)N=C(N)N [metformin]
hGBM SCCs and FCCs
  apoptotic cell death (cleaved caspase 3) in SCCs: significant increase in apoptotic cell death
hGBM cells
  GBM cell survival, combination with glucose deprivation: greatest inhibitory effect on GBM cell survival
